From patent US20250090510A1, “eIF4G1-eIF1 INHIBITORS AND USE THEREOF” (YEDA RESEARCH AND DEVELOPMENT CO. LTD., priority 2022, published 2025)

System: eIF2α S52A mutant cells
Experiment: Polysome profiling and real-time PCR in eIF2α S52A mutant cells
Assay type: cell-based, mouse
Conditions: i14G1-10 30 μM, i14G1-12 15 μM, 3 h; for translation of ISR genes in polysome fractions: S52A cells; for overall translation, polysome to monosome ratio (P/M): S52A mutant cells
Excerpt: FIGS. 6A-G: i14G1-10 and i14G1-12 uncover roles of the eIF4G1-eIF1 complex in ISR, cell cycle and cell survival. […] (6B). Ribo-seq and TI-seq read tracks of representative stress response-associated mRNAs (i.e., ATF3, and GADD45A) in DMSO (black), i14G1-10 (red), and i14G1-12 (green) samples. The red triangle represents 5′UTR TIS codons and the green denotes annotated TIS. Black arrows show the translation direction. (6C) Mouse embryonic fibroblasts (MEFs) control cells and eIF2αS52A mutant MEF cells were treated with Thapsigargin (1 μM) for 1h. Cells were lysed, and cell lysate was analyzed using western blot with the indicated antibodies. (6D) Control cells and eIF2αS52A mutant MEF cells were treated with DMSO, i14G1-10 (30 μM) or i14G1-12 (15 μM) for 3 h, cells were lysed in polysome buffer and loaded onto sucrose density gradient for polysome separation followed by fractionation. The graph presents the polysomes vs monosomes ratio in control MEFs (purple) and eIF2αS52A mutant cells (blue). (6E) Fractions were pooled (from 6D) according to the polysome profile as free (grey), light (blue), and heavy (yellow) polysomal fractions. cDNA was prepared from each fraction pool and real-time PCR was performed for the indicated stress response genes. The data are shown as mean±SEM, n=3. The asterisks denote statistically significant differences compared to DMSO, according to Student's t-tests (one-tailed, paired), *p<0.05; **p<0.01. (6F-G). HEK293T cells were transfected with HA-eIF1 or HA-eIF4E, 48 h later, treated with (6F) 1 μM Thapsigargin or (6G) 250 nM Torin-1. Cell lysates were subjected to immunoprecipitation with HA-agarose beads to precipitate HA-eIF1 and HA-eIF4E to check for co-IP of eIF4G1 using western blot (left). The graphs on the right represent the relative chemiluminescence signal intensity of the co-immunoprecipitation of eIF4G1 with HA-eIF1 or HA-eIF4E of 4 independent experiments. The asterisks denote statistically significant difference compared to DMSO *p<0.05; **p<0.01.
FIGS. 7A-E: (7A) Ribo-seq and TI-seq read tracks of representative stress response-associated mRNAs (DDIT3 and GADD34) in DMSO (black), i14G1-10 (red), and i14G1-12 (green) samples. The red triangle represents 5′UTR TIS codons and the green denotes annotated TIS. Black arrows show the translation direction. […] The graphs in the lower panel are the quantification of ATF4's uORF1′, uORF1, uORF2, and main-ORF reads of the Ribo-seq data. The asterisks denote statistically significant difference compared to DMSO, according to Student's t-tests (one-tailed, paired). **p<0.01, ***p<0.001, ****p<0.0001. (7C) HEK293T cells were treated with DMSO, i14G1-10, and i14G1-12 for 3 h, lysed and subjected to sucrose gradient sedimentation and fractionation. […]

Row | SMILES | translation of ISR genes in polysome fractions | overall translation, polysome to monosome ratio (P/M)
1 | O=C(/C=C/Sc1ccc(C(F)(F)F)cn1)c1ccccc1 [i14G1-10] | upregulated | not significantly
2 | Cn1ccnc1S/C(=C/C=C(C#N)C#N)c1ccc(Cl)cc1 [i14G1-12] | upregulated | further inhibited
